From patent US9833497B2, “Human originated EGF domain proteins and use of the same” (CHENGDU SOURCEBIO LIMITED-LIABILITY COMPANY, priority 2013, dated 2017)

Experiments:
Assay type in all cases: cell-based
Klebsiella pneumonia = test: MIC against Gram-negative bacteria: Klebsiella pneumonia; settings: 5×10^5 CFU/mL
Procedure, shortened: (§1)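 MIC, the lowest recombinant protein concentration giving no bacterial growth, found by two-fold serial dilution of human EGF-domain proteins in triplicate. Inoculum 5×10^5 CFU/mL in LB from cultures at McFarland 0.5; plates incubated at 37° C, 175 rpm shaking.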

Aeromonas hydrophila = test: MIC against Gram-negative bacteria: Aeromonas hydrophila; settings: 5×10^5 CFU/mL
Procedure, shortened: as §1

Proteus vulgaris = test: MIC against Gram-negative bacteria: Proteus vulgaris; settings: 5×10^5 CFU/mL
Procedure, shortened: as §1

Pseudomonas aeruginosa = test: MIC against Gram-negative bacteria: Pseudomonas aeruginosa; settings: 5×10^5 CFU/mL
Procedure, shortened: as §1

Serratia marcescens = test: MIC against Gram-negative bacteria: Serratia marcescens; settings: 5×10^5 CFU/mL
Procedure, shortened: as §1

Citrobacter diversus = test: MIC against Gram-negative bacteria: Citrobacter diversus; settings: 5×10^5 CFU/mL
Procedure, shortened: as §1

Moraxella catarrhalis = test: MIC against Gram-negative bacteria: Moraxella catarrhalis; settings: 5×10^5 CFU/mL
Procedure, shortened: as §1

Proteus mirabilis = test: MIC against Gram-negative bacteria: Proteus mirabilis; settings: 5×10^5 CFU/mL
Procedure, shortened: as §1

Enterobacter cloacae = test: MIC against Gram-negative bacteria: Enterobacter cloacae; settings: 5×10^5 CFU/mL
Procedure, shortened: as §1

E. coli DH5α = test: Antibacterial activity: MIC and growth curve against E. coli DH5α in 96-well plate; settings: minimal inhibitory concentration against E. coli DH5α; 96-well plate, 5×10^5 CFU/mL, 37° C., judged after 8 h
Procedure, shortened: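 Log-phase bacteria (OD600 ~0.5) resuspended in LB at 5×10^5 CFU/mL, exposed to recombinant protein at 50, 25, 12.5 μg/mL final in triplicate, 37 °C shaking at 175 rpm. OD600 read every 30 min; MIC is lowest concentration showing no growth.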

E. coli BL21 = test: MIC against Gram-negative bacteria: E. coli BL21; settings: 5×10^5 CFU/mL
Procedure, shortened: as §1

[1] = K. pneumonia, 10 h cultivation at 37° C.
[2] = A. hydrophila, 10 h cultivation at 37° C.
[3] = P. vulgaris, 10 h cultivation at 37° C.
[4] = P. aeruginosa, 10 h cultivation at 37° C.
[5] = S. marcescens, 10 h cultivation at 37° C.
[6] = C. diversus, 10 h cultivation at 37° C.
[7] = M. catarrhalis, 10 h cultivation at 37° C.
[8] = P. mirabilis, 10 h cultivation at 37° C.
[9] = E. cloacae, 10 h cultivation at 37° C.
[10] = E. coli BL21, 10 h cultivation at 37° C.
[11] = Klebsiella pneumonia, 96-well plate, 37° C., 10 h
[12] = Aeromonas hydrophila, 96-well plate, 37° C., 10 h
[13] = Proteus vulgaris, 96-well plate, 37° C., 10 h
[14] = Pseudomonas aeruginosa, 96-well plate, 37° C., 10 h
[15] = Serratia marcescens, 96-well plate, 37° C., 10 h
[16] = Citrobacter diversus, 96-well plate, 37° C., 10 h
[17] = Moraxella catarrhalis, 96-well plate, 37° C., 10 h
[18] = Proteus mirabilis, 96-well plate, 37° C., 10 h
[19] = Enterobacter cloacae, 96-well plate, 37° C., 10 h
[20] = E. coli BL21, 96-well plate, 37° C., 10 h
[21] = 10 h cultivation at 37° C., two-fold serial dilution

PRT762 (ALDPCVLGTHQCQHVCISDGEGKHHCECSQGYTLNADKKTCS; listed as Homo sapiens)
25 µg/mL: MIC (μg/mL) P. vulgaris (Proteus vulgaris; [3])
50 µg/mL: MIC (μg/mL) P. aeruginosa (Pseudomonas aeruginosa; [4]) | MIC (μg/mL) C. diversus (Citrobacter diversus; [6]) | MIC (μg/mL) P. mirabilis (Proteus mirabilis; [8]) | MIC (μg/mL) E. cloacae (Enterobacter cloacae; [9]) | MIC (E. coli DH5α)
12.5 µg/mL: MIC (μg/mL) K. pneumonia (Klebsiella pneumonia; [1]) | MIC (μg/mL) A. hydrophila (Aeromonas hydrophila; [2]) | MIC (μg/mL) S. marcescens (Serratia marcescens; [5]) | MIC (μg/mL) M. catarrhalis (Moraxella catarrhalis; [7]) | MIC (μg/mL) E. coli BL21 (E. coli BL21; [10])

PRT721 (DIDECTEMPFVCSQKCENVIGSYICKCAPGYLREPDGKTCR; listed as Homo sapiens)
12.5 µg/mL: MIC A. hydrophila (Aeromonas hydrophila; 96-well plate, 37° C., 10 h) | MIC P. vulgaris (Proteus vulgaris; 96-well plate, 37° C., 10 h) | MIC P. mirabilis (Proteus mirabilis; 96-well plate, 37° C., 10 h) | MIC E. coli BL21 (E. coli BL21; 96-well plate, 37° C., 10 h)
25 µg/mL: MIC P. aeruginosa (Pseudomonas aeruginosa; 96-well plate, 37° C., 10 h) | MIC C. diversus (Citrobacter diversus; 96-well plate, 37° C., 10 h) | MIC E. cloacae (Enterobacter cloacae; 96-well plate, 37° C., 10 h) | MIC (E. coli DH5α)
50 µg/mL: MIC K. pneumonia (Klebsiella pneumonia; 96-well plate, 37° C., 10 h) | MIC S. marcescens (Serratia marcescens; 96-well plate, 37° C., 10 h) | MIC M. catarrhalis (Moraxella catarrhalis; 96-well plate, 37° C., 10 h)

PRT662 (RIYFCQIPCLNGGRCIGRDECWCPANSTGKFCH; listed as Homo sapiens)
50 µg/mL: MIC K. pneumonia (Klebsiella pneumonia; 96-well plate, 37° C., 10 h) | MIC S. marcescens (Serratia marcescens; 96-well plate, 37° C., 10 h) | MIC P. mirabilis (Proteus mirabilis; 96-well plate, 37° C., 10 h)
12.5 µg/mL: MIC A. hydrophila (Aeromonas hydrophila; 96-well plate, 37° C., 10 h) | MIC P. vulgaris (Proteus vulgaris; 96-well plate, 37° C., 10 h) | MIC E. coli BL21 (E. coli BL21; 96-well plate, 37° C., 10 h)
25 µg/mL: MIC P. aeruginosa (Pseudomonas aeruginosa; 96-well plate, 37° C., 10 h) | MIC C. diversus (Citrobacter diversus; 96-well plate, 37° C., 10 h) | MIC M. catarrhalis (Moraxella catarrhalis; 96-well plate, 37° C., 10 h) | MIC E. cloacae (Enterobacter cloacae; 96-well plate, 37° C., 10 h) | MIC (E. coli DH5α)

PRT107 (DRCLPSYCEHGGECSQSWDTFSCDCLGTGYTGETC; listed as Homo sapiens)
12.5 µg/mL: MIC (μg/mL) K. pneumonia (Klebsiella pneumonia; [11]) | MIC (μg/mL) P. aeruginosa (Pseudomonas aeruginosa; [14]) | MIC (μg/mL) S. marcescens (Serratia marcescens; [15]) | MIC (μg/mL) M. catarrhalis (Moraxella catarrhalis; [17]) | MIC (μg/mL) E. cloacae (Enterobacter cloacae; [19]) | MIC (E. coli DH5α) | MIC (μg/mL) E. coli BL21 (E. coli BL21; [20])
25 µg/mL: MIC (μg/mL) C. diversus (Citrobacter diversus; [16]) | MIC (μg/mL) P. mirabilis (Proteus mirabilis; [18])
50 µg/mL: MIC (μg/mL) A. hydrophila (Aeromonas hydrophila; [12]) | MIC (μg/mL) P. vulgaris (Proteus vulgaris; [13])

PRT515 (CHCDPIGSLNEVCVKDEKHARRGLAPGSCHCKTGFGGVSCDRCARGYTGYPDCKA; listed as Homo sapiens)
100 µg/mL: MIC against M. catarrhalis (Moraxella catarrhalis; 96-well plate, 37° C., 10 h)
12.5 µg/mL: MIC against K. pneumonia (Klebsiella pneumonia; 96-well plate, 37° C., 10 h) | MIC against P. vulgaris (Proteus vulgaris; 96-well plate, 37° C., 10 h) | MIC against E. coli BL21 (E. coli BL21; 96-well plate, 37° C., 10 h)
25 µg/mL: MIC against P. aeruginosa (Pseudomonas aeruginosa; 96-well plate, 37° C., 10 h) | MIC against C. diversus (Citrobacter diversus; 96-well plate, 37° C., 10 h) | MIC against E. cloacae (Enterobacter cloacae; 96-well plate, 37° C., 10 h) | MIC (E. coli DH5α)
50 µg/mL: MIC against A. hydrophila (Aeromonas hydrophila; 96-well plate, 37° C., 10 h) | MIC against S. marcescens (Serratia marcescens; 96-well plate, 37° C., 10 h) | MIC against P. mirabilis (Proteus mirabilis; 96-well plate, 37° C., 10 h)

PRT1232 (IGQQCPNMCSGHGSCDHGICRCDQGYQGTECH; listed as Homo sapiens)
25 µg/mL: MIC against P. aeruginosa (Pseudomonas aeruginosa; [14]) | MIC against S. marcescens (Serratia marcescens; [15]) | MIC against C. diversus (Citrobacter diversus; [16]) | MIC against P. mirabilis (Proteus mirabilis; [18]) | MIC against E. cloacae (Enterobacter cloacae; [19]) | MIC against E. coli BL21 (E. coli BL21; [20])
50 µg/mL: MIC against A. hydrophila (Aeromonas hydrophila; [12]) | MIC against P. vulgaris (Proteus vulgaris; [13]) | MIC (E. coli DH5α)
12.5 µg/mL: MIC against K. pneumonia (Klebsiella pneumonia; [11]) | MIC against M. catarrhalis (Moraxella catarrhalis; [17])

PRT536 (CECHPTGATGPHCSPEGGQCPCQPNVIGRQCTRCATGHYGFPRCKP; listed as Homo sapiens)
12.5 µg/mL: MIC against P. aeruginosa (Pseudomonas aeruginosa; 96-well plate, 37° C., 10 h) | MIC against S. marcescens (Serratia marcescens; 96-well plate, 37° C., 10 h) | MIC against C. diversus (Citrobacter diversus; 96-well plate, 37° C., 10 h) | MIC against P. mirabilis (Proteus mirabilis; 96-well plate, 37° C., 10 h) | MIC against E. cloacae (Enterobacter cloacae; 96-well plate, 37° C., 10 h) | MIC (E. coli DH5α)
50 µg/mL: MIC against K. pneumonia (Klebsiella pneumonia; 96-well plate, 37° C., 10 h) | MIC against A. hydrophila (Aeromonas hydrophila; 96-well plate, 37° C., 10 h) | MIC against P. vulgaris (Proteus vulgaris; 96-well plate, 37° C., 10 h) | MIC against M. catarrhalis (Moraxella catarrhalis; 96-well plate, 37° C., 10 h) | MIC against E. coli BL21 (E. coli BL21; 96-well plate, 37° C., 10 h)

PRT177 (GPGPCDGNPCANGGSCSETPRSFECTCPRGFYGLRCE; listed as Homo sapiens)
12.5 µg/mL: MIC (μg/mL) P. aeruginosa (Pseudomonas aeruginosa; [4]) | MIC (μg/mL) S. marcescens (Serratia marcescens; [5]) | MIC (μg/mL) C. diversus (Citrobacter diversus; [6])
50 µg/mL: MIC (μg/mL) P. mirabilis (Proteus mirabilis; [8]) | MIC (μg/mL) E. cloacae (Enterobacter cloacae; [9]) | MIC (E. coli DH5α)
25 µg/mL: MIC (μg/mL) K. pneumonia (Klebsiella pneumonia; [1]) | MIC (μg/mL) A. hydrophila (Aeromonas hydrophila; [2]) | MIC (μg/mL) P. vulgaris (Proteus vulgaris; [3]) | MIC (μg/mL) M. catarrhalis (Moraxella catarrhalis; [7]) | MIC (μg/mL) E. coli BL21 (E. coli BL21; [10])

PRT752 (TAHMCSTLEHNCAHFCINIPGSYVCRCKQGYILNSDQTTCR; listed as Homo sapiens)
25 µg/mL: MIC (μg/mL) P. vulgaris (Proteus vulgaris; [3]) | MIC (μg/mL) M. catarrhalis (Moraxella catarrhalis; [7]) | MIC (μg/mL) E. coli BL21 (E. coli BL21; [10])
50 µg/mL: MIC (μg/mL) A. hydrophila (Aeromonas hydrophila; [2]) | MIC (μg/mL) P. mirabilis (Proteus mirabilis; [8]) | MIC (E. coli DH5α)
12.5 µg/mL: MIC (μg/mL) K. pneumonia (Klebsiella pneumonia; [1]) | MIC (μg/mL) P. aeruginosa (Pseudomonas aeruginosa; [4]) | MIC (μg/mL) S. marcescens (Serratia marcescens; [5]) | MIC (μg/mL) C. diversus (Citrobacter diversus; [6]) | MIC (μg/mL) E. cloacae (Enterobacter cloacae; [9])

PRT1071 (ELDQCWEHCRNGGTCAASPSGMPTCRCPTGFTGPKCT; listed as Homo sapiens)
25 µg/mL: MIC K. pneumonia (Klebsiella pneumonia; [21]) | MIC A. hydrophila (Aeromonas hydrophila; [21]) | MIC E. coli BL21 (E. coli BL21; [21])
50 µg/mL: MIC P. vulgaris (Proteus vulgaris; [21]) | MIC M. catarrhalis (Moraxella catarrhalis; [21]) | MIC E. cloacae (Enterobacter cloacae; [21]) | MIC (E. coli DH5α)
12.5 µg/mL: MIC P. aeruginosa (Pseudomonas aeruginosa; [21]) | MIC S. marcescens (Serratia marcescens; [21]) | MIC C. diversus (Citrobacter diversus; [21]) | MIC P. mirabilis (Proteus mirabilis; [21])
